The values below come from patent US20230416287A1, “Chemical Compounds” (GLAXOSMITHKLINE INTELLECTUAL PROPERTY DEVELOPMENT LIMITED, priority 2022, published 2023).

One series in a line: CAD kinetic solubility. The conditions noted are these: phosphate buffered saline (PBS), aqueous buffer, PBS pH 7.4, 1 hour equilibration at room temperature, from DMSO stock, HPLC-CAD. The class given is physicochemical. As for the experimental part:
Kinetic solubility was measured using Charged Aerosol Detector (CAD). The aqueous kinetic solubility at pH 7.4 was determined by measuring the concentration of solute in solution after precipitation from DMSO stock solution. The DMSO stock solution was diluted 20-fold with phosphate buffered saline (PBS) pH 7.4 and the solubility of the compound was measured after 1 hour equilibration at room temperature by HPLC-CAD.

For series [1], the target named is T1, human Nav1.8 (Homo sapiens, UniProt Q9Y5Y9). In words: Manual patch-clamp electrophysiology assay, HEK293 cells overexpressing human Nav1.8. The class given is cell-based. Also on record: host or cells: HEK293. The conditions noted are these: manual whole-cell patch-clamp, single-pulse resting protocol, holding voltage -120 mV, step to 0 mV, room temperature. The source says: The pharmacological activity of the Compounds of Example 4A and Example 5A (active parent compound of prodrug Example 4 and Example 5, respectively) was investigated by a patch-clamp electrophysiological method using a cellular system in which human Nav1.8 was overexpressed in HEK293 cells. Using this approach Nav1.8 can be activated by modulating the plasma membrane voltage and then channel function (Na^+ conduction) can be directly quantified. The ability of Nav1.8 inhibitors to block channel function in this system is a measurement of target binding and inhibition.
T1 sequence (Q9Y5Y9 whole entry): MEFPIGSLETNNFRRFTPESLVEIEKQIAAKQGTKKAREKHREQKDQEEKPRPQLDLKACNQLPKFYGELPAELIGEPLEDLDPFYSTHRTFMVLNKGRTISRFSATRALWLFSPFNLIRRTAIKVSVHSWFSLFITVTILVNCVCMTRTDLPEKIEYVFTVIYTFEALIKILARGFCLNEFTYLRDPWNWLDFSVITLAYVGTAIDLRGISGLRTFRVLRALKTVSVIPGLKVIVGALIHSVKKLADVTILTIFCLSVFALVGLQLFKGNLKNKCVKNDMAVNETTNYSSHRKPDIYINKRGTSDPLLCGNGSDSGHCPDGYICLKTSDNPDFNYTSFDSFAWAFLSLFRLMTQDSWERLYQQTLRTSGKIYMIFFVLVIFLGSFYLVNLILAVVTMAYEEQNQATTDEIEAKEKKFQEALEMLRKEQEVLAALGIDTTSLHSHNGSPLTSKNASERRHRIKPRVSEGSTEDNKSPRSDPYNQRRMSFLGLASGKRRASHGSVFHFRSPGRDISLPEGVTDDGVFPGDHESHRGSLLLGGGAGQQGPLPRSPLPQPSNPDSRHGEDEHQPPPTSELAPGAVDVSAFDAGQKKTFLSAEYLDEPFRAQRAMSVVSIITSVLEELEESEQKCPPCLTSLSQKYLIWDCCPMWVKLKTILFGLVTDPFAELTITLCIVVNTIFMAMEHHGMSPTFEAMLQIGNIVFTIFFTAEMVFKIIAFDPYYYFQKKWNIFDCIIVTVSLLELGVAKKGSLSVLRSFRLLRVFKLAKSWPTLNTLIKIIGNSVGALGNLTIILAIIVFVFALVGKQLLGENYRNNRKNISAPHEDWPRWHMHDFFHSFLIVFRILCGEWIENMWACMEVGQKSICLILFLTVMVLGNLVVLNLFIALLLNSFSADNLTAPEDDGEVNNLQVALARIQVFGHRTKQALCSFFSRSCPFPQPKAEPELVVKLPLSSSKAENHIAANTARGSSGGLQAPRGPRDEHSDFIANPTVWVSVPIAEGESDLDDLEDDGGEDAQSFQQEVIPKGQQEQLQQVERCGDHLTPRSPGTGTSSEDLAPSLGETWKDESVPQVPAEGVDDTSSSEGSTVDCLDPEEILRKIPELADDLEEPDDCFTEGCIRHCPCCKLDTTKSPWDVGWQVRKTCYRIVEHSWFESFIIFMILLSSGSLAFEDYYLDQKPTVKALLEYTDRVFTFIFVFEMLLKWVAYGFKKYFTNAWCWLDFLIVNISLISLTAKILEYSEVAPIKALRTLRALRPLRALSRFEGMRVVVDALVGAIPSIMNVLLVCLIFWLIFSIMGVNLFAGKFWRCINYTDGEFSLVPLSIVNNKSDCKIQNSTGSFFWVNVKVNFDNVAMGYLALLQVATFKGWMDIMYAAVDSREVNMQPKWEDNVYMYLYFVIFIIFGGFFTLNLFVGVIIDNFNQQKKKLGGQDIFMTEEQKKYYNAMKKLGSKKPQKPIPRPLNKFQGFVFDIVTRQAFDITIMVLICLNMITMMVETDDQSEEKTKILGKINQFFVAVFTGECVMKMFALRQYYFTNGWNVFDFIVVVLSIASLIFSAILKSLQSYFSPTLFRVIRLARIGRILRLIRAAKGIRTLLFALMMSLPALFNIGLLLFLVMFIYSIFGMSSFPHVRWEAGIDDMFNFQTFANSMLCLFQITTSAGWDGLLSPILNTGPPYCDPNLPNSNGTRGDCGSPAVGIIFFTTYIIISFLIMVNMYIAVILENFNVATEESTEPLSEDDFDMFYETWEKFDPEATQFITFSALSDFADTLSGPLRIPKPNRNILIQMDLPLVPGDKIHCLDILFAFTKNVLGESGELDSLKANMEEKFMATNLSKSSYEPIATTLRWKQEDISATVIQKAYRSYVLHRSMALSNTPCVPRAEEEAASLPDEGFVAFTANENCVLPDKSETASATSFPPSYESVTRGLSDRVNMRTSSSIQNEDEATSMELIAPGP
Cell preparation: HEK293 cells overexpressing human Nav1.8 (BIOCAT124824) were grown at 37° C., 5% C02 in medium (DMEM/F12 with 10% FBS, 2 mM GlutaMAX, 0.1 mM NEAA and […] G418, […] Hygromycin-B and […] Puromycin). […]
Voltage-clamp recording protocol: Compound effects were tested using single-pulse resting protocol in which cells were depolarized to 0 mV for 50 ms from a holding voltage of −120 mV. The peak current amplitudes were measured from the activated currents at 0 mV. […]
Nav1.8 current amplitudes measurement and normalization: Nav1.8 peak currents elicited by test pulse of 0 mV were measured and analysed by Clampfit 10.6 Software (Molecular Devices, USA). […]
Compound inhibition analysis: The compound inhibition effect was calculated using the following equation: […]

Series [2] concerns the target T1, human Nav1.8. In words: Nav1.8 inhibitory activity, QPatch 48 HTX electrophysiology in HEK293-Nav1.8 cells. The class given is cell-based. Also on record: expressed in transfected cells; host or cells: HEK293. The conditions noted are these: half inactivation state voltage protocol (V1/2), HEK293 cells expressing human Nav1.8, read-out: [Nav1.8] pIC50 (converted). As for the experimental part: Biological Assay 1: Nav1.8 Inhibitory Activity Human embryonic kidney 293 cells (HEK293) expressing human Nav1.8, human Navol and human TREK1 (HEK293-Nav1.8) were grown in T150 cell culture flasks at 37° C., 5% CO2 incubator. HEK293-Nav1.8 were passaged every 2-3 days when confluency reached 80-90% in T150 cell culture flasks.
Pharmacological assessment of compounds of the invention was performed using the QPatch 48 HTX electrophysiological platform. HEK293-Nav1.8 cells were prepared on the day of use by removing culture media, washing in DPBS, adding Accutase (2 mL to cover the surface, aspirate 1 mL then 1-2 minutes at 37° C.) followed by addition of CHO-SFM II to stop the enzyme digestion and in order to obtain a suspension of 3×10^6 cell/mL.
Compounds of the invention were prepared in an extracellular solution of the following composition: NaCl (145 mM), KCl (4 mM), CaCl2) (2 mM), MgCl (2 mM), HEPES (1 mM), Glucose (10 mM), pH 7.4 with NaOH Osmolality 300 mOsM/L. An intracellular solution of the following composition was used: CsF (115 mM), CsCl (20 mm), NaCl (5 mM), EGTA (10 mM), HEPES (10 mM), Sucrose (20 mM), pH 7.2 with CsOH Osmolality 310 mOsm/L.
Utilizing the voltage-clamp mode in the QPatch 48 HTX system a half inactivation state voltage protocol (V1/2) was used to determine pharmacological activity of compounds of the invention at Nav1.8 ion channels. A V1/2 protocol was utilized with the following voltage steps: a holding voltage of −100 mV was established followed by a 20 ms voltage step to 0 mV (P1), followed by an inactivating voltage step at −46 mV for 8 seconds, followed by a step to −100 mV for 20 ms, before a 20 ms step to 0 mV (P2), then returned to the holding voltage of −100 mV. This voltage protocol was repeated at a frequency of every 15 seconds, the current magnitude was quantified at the P2 step throughout the recording. Inhibition of the measured current amplitude with compounds of the invention was analyzed by fitting a 4-6 points dose-response curve allowing determination of the fifty percent inhibition concentration (IC50). P2 currents were normalized according to measurements made at baseline (Baseline, vehicle only), after compound (Input, at each test concentration), and after positive reference compound (FullResponse, to achieve complete block), fit to the following equation: […]
To assess current run-down over the course of the experiment vehicle-only wells were utilized and the normalized current with vehicle-only (n. IVEH) was determined. To correct the compound response for run-down, the currents were corrected according to the following formula:
[formula] • Compound inhibition was fitted to the following Hill Equation to estimate the half maximal inhibition concentration (IC50)
[formula] • where Y is the normalized run-down corrected inhibition relative to the vehicle control (equivalent to n. IRD_Correct), C the test compound concentration, IC50 the concentration of test compound to inhibit the sodium current by 50%, and h the Hill coefficient.
In general terms: The patch-clamp technique gives a direct electrical read-out from membranes.

Values after ≈ are worked out from the molar mass of the structure shown.

By solubility is commonly meant the dissolved amount per volume that the medium holds. High values mean much dissolved substance, low ones little dissolved substance.

For `Cc1[nH]c(=O)ccc1N1CN(c2ccc(F)c(F)c2C)c2cc(Cl)c(F)cc2C1=O` [Example 4A, 7-chloro-1-(3,4-difluoro-2-methylphenyl)-6-fluoro-3-(2-methyl-6-oxo-1,6-dihydropyridin-3-yl)-2,3-dihydroquinazolin-4(1H)-one], the solubility at 1 h in “CAD kinetic solubility” was 44 µg/mL (≈ 101 µM). The IC50 against human Nav1.8 [1] is 0.8 ± 0.2 nM; at human Nav1.8 [2] it was 5.01 nM.
On the same counts, the results for `Cc1cc(F)ccc1N1CN(c2ccc(=O)[nH]c2C)C(=O)c2cc(F)c(Cl)cc21` [Example 5A, 7-chloro-6-fluoro-1-(4-fluoro-2-methylphenyl)-3-(2-methyl-6-oxo-1,6-dihydropyridin-3-yl)-2,3-dihydroquinazolin-4(1H)-one] are 55 µg/mL (≈ 132 µM), 2.2 nM and 5.01 nM.
